Results reported in publication PMC7464559, “Synthesis, Optimization, Antifungal Activity, Selectivity, and CYP51 Binding of New 2-Aryl-3-azolyl-1-indolyl-propan-2-ols” (Pharmaceuticals, 2020).
≈ marks a conversion by molar mass, not a printed value. Entries after “also recorded” stand apart in the source; their conditions may differ.

Tests used:
[1] = system: CA98002 (Candida albicans); experiment: Anti-Candida in vitro assay, CA98002; assay type: cell-based; conditions: Candida albicans CA98002, mean of triplicate; read-out: MIC (IC80) CA98002
Method: (§1) Test fungal strains were obtained from the American Type Culture Collection (ATCC) or were clinical isolates from the Laboratory of Parasitology and Medical Mycology, Centre Hospitalier Universitaire (CHU) of Nantes. The strains were maintained on Sabouraud agar slants and were subcultured 24 h before used. The activity of the target compounds 8a–g and 11a–m was determined by the method previously described. Briefly, molecules were diluted in RPMI 1640 medium supplemented with 0.165 M morpholinopropanesulphonic acid (Sigma-Aldrich, Saint-Quentin Fallavier, France), 2% glucose, and antibiotics. Candida suspensions were prepared in RPMI 1640 medium (Sigma-Aldrich, Saint-Quentin Fallavier, France) adjusted to give a final concentration of 10^3 cells/mL, and a 96-well microplate (Nunc, D. Dutscher, Brumath, France) was seeded with 100 µL. Each concentration of molecules (100 µL) to be tested was added (in triplicate) and plates were incubated at 37 °C for 24 h. The cellular viability was evaluated on the Fluorolite 1000 (Dynatech, France) with an excitation at 550 nm and an emission at 590 nm after a 4 h incubation with 10 µL of Alamar Blue®. […] MIC was expressed as the mean of the triplicate values. KTC and FLC were used as standards.

[2] = system: ATCC6258 Candida krusei strain; experiment: Anti-Candida in vitro assay, ATCC6258; assay type: cell-based; conditions: Pichia kudriavzevii; Candida krusei ATCC6258, mean of triplicate; read-out: MIC (IC80) ATCC6258
Method: as §1

[3] = system: CK98003 (Candida krusei); experiment: Anti-Candida in vitro assay, CK98003; assay type: cell-based; conditions: Pichia kudriavzevii; Candida krusei CK98003, mean of triplicate; read-out: MIC (IC80) CK98003
Method: as §1

[4] = system: ATCC90018 Candida parapsilosis strain; experiment: Anti-Candida in vitro assay, ATCC90018; assay type: cell-based; conditions: Lodderomyces parapsilosis; Candida parapsilosis ATCC90018, mean of triplicate; read-out: MIC (IC80) ATCC90018
Method: as §1

[5] = target: T1, aromatase (CYP19) (Homo sapiens, UniProt P11511); experiment: In vitro inhibition of aromatase; assay type: biochemical; conditions: at 36 µM
T1 construct: Microsomal protein (0.1 mg) was added to start the reaction; from tissue; host or cells: microsomes; ('human placental microsomes')
T1 sequence (P11511 1-503): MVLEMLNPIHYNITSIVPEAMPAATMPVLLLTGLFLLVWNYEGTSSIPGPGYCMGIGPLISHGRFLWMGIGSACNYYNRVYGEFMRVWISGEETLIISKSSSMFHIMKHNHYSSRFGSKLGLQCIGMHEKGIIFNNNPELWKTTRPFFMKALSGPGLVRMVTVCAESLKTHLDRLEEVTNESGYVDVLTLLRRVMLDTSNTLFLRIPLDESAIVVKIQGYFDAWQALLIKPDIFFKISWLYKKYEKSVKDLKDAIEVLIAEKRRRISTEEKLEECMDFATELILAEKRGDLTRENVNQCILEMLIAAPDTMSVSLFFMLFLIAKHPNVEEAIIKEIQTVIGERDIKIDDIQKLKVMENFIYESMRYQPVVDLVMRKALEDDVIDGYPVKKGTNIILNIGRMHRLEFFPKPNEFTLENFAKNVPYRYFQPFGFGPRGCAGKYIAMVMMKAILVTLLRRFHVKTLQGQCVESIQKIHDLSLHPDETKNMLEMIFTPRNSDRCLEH
Method: The assay was performed according to previously described methods [49, 50, 51] by monitoring the enzyme activity by measuring the ^3H2O formed from [1β-^3H]androstenedione during aromatization. […] Microsomal protein (0.1 mg) was added to start the reaction. After incubation of 15 min at 30 °C, the reaction was stopped by adding 200 µL of a cold HgCl2 solution (1 mM). After the addition of 200 µL of an aqueous dextran-coated charcoal (DCC) suspension (2%), the vials were shaken then centrifuged to separate the charcoal-absorbed steroids. Aliquots of the supernatant were assayed for ^3H2O by counting in a scintillation mixture using a LKB-Wallac β-counter.

[6] = target: T2, 11β-hydroxylase (CYP11B1) (Homo sapiens, UniProt P15538); experiment: In vitro inhibition of CYP11B1 (Schizosaccharomyces pombe SZ1); assay type: cell-based; conditions: inhibitor 100 nM to 5 µM, three to four independent experiments
T2 construct: expressed in transfected cells; host or cells: Schizosaccharomyces pombe strain SZ1
T2 sequence (P15538 25-503): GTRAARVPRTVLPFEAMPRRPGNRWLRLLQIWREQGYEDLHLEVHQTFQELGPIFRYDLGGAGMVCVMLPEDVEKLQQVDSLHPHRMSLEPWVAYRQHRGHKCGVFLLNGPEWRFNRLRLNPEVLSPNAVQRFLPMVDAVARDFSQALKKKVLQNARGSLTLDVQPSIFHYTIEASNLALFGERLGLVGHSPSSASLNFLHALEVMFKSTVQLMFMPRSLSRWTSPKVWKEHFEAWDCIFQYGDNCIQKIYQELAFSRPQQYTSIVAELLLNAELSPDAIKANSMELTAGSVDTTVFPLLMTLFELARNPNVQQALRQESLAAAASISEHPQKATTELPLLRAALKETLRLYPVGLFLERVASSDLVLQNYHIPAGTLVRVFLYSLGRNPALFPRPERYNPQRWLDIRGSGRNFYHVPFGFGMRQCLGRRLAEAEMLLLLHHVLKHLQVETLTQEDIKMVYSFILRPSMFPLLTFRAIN
Method: For the CYP11B1 assay, 11-deoxycortisol (RSS) was used as substrate, whereas 11-deoxycorticosterone (DOC) was used for the CYP11B2 assay. These non-radioactive steroids were purchased from Sima (Deisenhofen, Germany). Radioactive steroids were obtained from Amersham Pharmacia Biotech (Freiburg, Germany). Two Schizosaccharomyces pombe strains were used, SZ1 expressing CYP11B1 and MB164 expressing CYP11B2. The assays were performed as described previously by Bureik et al.. Exponentially growing fission yeast cells were cultivated by shaking and with good aeration at 30 °C in 500 µL Edinburgh Minimal Medium Glutamate (EMMG) containing supplements as required. Inhibitors were dissolved in ethanol at different concentrations, and equal volumes of ethanolic solutions were used in all cases (including controls). Final concentrations of inhibitors ranged from 100 nM to 5 µM. Cells were preincubated with the respective inhibitor solutions for 15 min prior to the addition of steroid substrates (100 nM DOC or 100 nM RSS, respectively). For detection of steroids, 1% of the total substrate amount was radioactively labeled as [^3H]RSS, [^3H]DOC, or [^14C]DOC. After 4 h (MB164) or 24 h (SZ1) cultures were extracted with chloroform and dried under vacuum. The residues were dissolved in 10 µL chloroform and spotted onto glass-backed silica-coated HPTLC plates (Kieselgel 60 F254, Merck; Darmstadt, Germany). In addition, small amounts of non-radioactive steroids were spotted as references. The HPTLC was developed twice in chloroform/methanol/water (300:20:1, v/v/v) and steroids identified after exposure to Fuji imaging plates and quantitated on a phosphoimager (BAS-2500, Fuji; Stamford, CT, USA).

MIC [1] [µg/mL] | MIC [2] [µg/mL] | MIC [3] [µg/mL] | MIC [4] [µg/mL] | inhibition at 36 µM [5] [%] | CYP11B1 inhibition effect [6] | SMILES
2.75 (≈ 7.1 µM) | 24.4 (≈ 63 µM) | 19.4 (≈ 50 µM) | > 38.7 | 51 | no inhibition | O[C@@](Cn1cncn1)(Cn1ccc2ccccc21)c1ccc(Cl)cc1Cl [(+)-(R)-8g]
< 0.039 | 0.167 (≈ 0.431 µM) | 0.039 (≈ 0.101 µM) | 0.027 (≈ 0.0697 µM) | 72 | no inhibition | O[C@](Cn1cncn1)(Cn1ccc2ccccc21)c1ccc(Cl)cc1Cl [(−)-(S)-8g]

SMILES | MIC [1] [µg/mL] | MIC [2] [µg/mL] | MIC [3] [µg/mL] | MIC [4] [µg/mL] | inhibition at 36 µM [5] [%] | CYP11B1 inhibition effect [6]
OC(Cn1cncn1)(Cn1ccc2ccccc21)c1ccc(Cl)cc1Cl (stereo not drawn) [Compound 8g, 2-(2,4-Dichlorophenyl)-3-(1H-indol-1-yl)-1-(1H-1,2,4-triazol-1-yl)-propan-2-ol] | < 0.004 | 0.08 (≈ 0.207 µM) | 3.56 (≈ 9.2 µM) | 0.15 (≈ 0.387 µM) | 27 | no inhibitory activity; also recorded: no inhibition
